Laboratory results published in US10865194B2, “Therapeutically active bicyclic-sulphonamides and pharmaceutical compositions” (FONDAZIONE ISTITUTO ITALIANO DI TECNOLOGIA, priority 2017, dated 2020).

Tests used:
Neuro2A cells = test: Inhibition of ROS production in Neuro2A cells (H2O2-induced, DCFH-DA fluorescence); format: cell-based; conditions: ROS induced with 0.2 mM H2O2
Description: The experiments carried out to evaluate the inhibition of ROS production using the compounds of the invention were based on the method reported by Danli W. and Patricia Yotnda in Production and Detection of Reactive Oxygen Species (ROS) in Cancers, J. Vis Exp. 2011; (57):3357.
Cultured brain Neuroblastoma2A (Neuro2A) were used.
15.000 Cells were plated in a 96 well plate with black walls and transparent flat bottom in 100 μL of DMEM complete medium (including 10% fetal bovine serum, […] L-Glutamine) containing compounds at indicated concentrations or 0.5% dimethylsulfoxide (DMSO), and kept overnight at 37° C. to allow them to attach to the plate. The following day the culture medium was removed, cells were washed with 100 μl of Phosphate Buffer Saline, pH 7.4 (PBS) and loaded with 100 μL of PBS containing 10 μM of dichloro-dihydro-fluorescein diacetate (DCFH-DA) and compounds at the indicated concentrations (or DMSO 0.5%) for additional 45 min at 37° C. DCFH-DA was prepared as a 20 mM stock in (DMSO) and kept in the dark at 4° C.
ROS production was induced by exposure with 0.2 mM H2O2 dissolved in 100 μl of complete DMEM medium without phenol red. Fluorescence intensity was measured at an […] wavelengths of 485/535 nm and ROS production was monitored for 2 h, at 37° C.

human NAAA = target: T1, human NAAA (Homo sapiens, UniProt Q02083); test: In vitro human NAAA fluorogenic assay; format: biochemical; conditions: Activity h-NAAA Fluorogenic assay, enzyme-enriched lysate of HEK-293 cells stably transfected with human NAAA
T1 construct: expressed in transfected cells; host or cells: HEK-293 (stably transfected, G418 selection); enzyme-enriched lysate
T1 sequence (Q02083 126-359 limits assumed): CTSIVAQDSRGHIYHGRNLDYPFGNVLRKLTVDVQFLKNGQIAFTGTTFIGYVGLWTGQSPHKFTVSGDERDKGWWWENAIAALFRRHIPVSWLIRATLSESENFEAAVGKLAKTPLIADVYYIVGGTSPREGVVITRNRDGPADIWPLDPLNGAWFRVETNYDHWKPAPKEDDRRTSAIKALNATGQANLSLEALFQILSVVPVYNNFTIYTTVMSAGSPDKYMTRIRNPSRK
T1 sequence (Q02083 29-125 limits assumed): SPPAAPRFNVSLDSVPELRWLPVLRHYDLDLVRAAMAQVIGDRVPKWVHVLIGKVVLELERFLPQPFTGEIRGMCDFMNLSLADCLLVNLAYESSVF
Description: Human recombinant proteins were obtained from HEK-293 stable overexpressing NAAA cell lines. Cells were grown in Dulbecco's modified Eagle medium (DMEM) containing 10% FBS, 1% penicillin/streptomycin, 1% glutamine and 500 μg/mL G418. To obtain membrane preparation cells were scraped off with cold phosphate-buffered saline (PBS) and collected by centrifugation (300×g, 7 min, 4° C.). Cell pellet were stored at −80° C. until protein preparation.
In Vitro Human NAAA Assay
Preparation of Enzyme-Enriched Lysate (h-NAAA).
HEK-293 cells stably transfected with the human NAAA coding sequences were used as enzyme source. Cell pellets were suspended in 20 mM Tris HCl (pH 7.4) with 0.32 M sucrose, sonicated and centrifuged at 800×g for 30 min at 4° C. Supernatants were then ultracentrifuged at 12,000×g for 30 min at 4° C. Pellets were re-suspended in PBS buffer (pH 7.4) and subjected to three freeze-thaw cycles at −80° C. The suspension was finally ultracentrifuged at 105,000×g for 1 h at 4° C., supematants were collected, protein concentration was measured and samples aliquoted and stored at −80° C. until use.
The results are summarized in Table 3 as follows, wherein +: IC50>2 μM; ++: 1.0 μM<IC50<2 μM; +++: IC50<1 μM: […]

CCCCc1ccc(OC2CC3CCC(C2)N3S(=O)(=O)c2c(C)n[nH]c2C)cc1 [Example 54, (1R,3r,5S)-3-(4-Butylphenoxy)-8-[(3,5-dimethyl-1H-pyrazol-4-yl)sulfonyl]-8-azabicyclo[3.2.1]octane]
Inhibition of ROS production in neuro 2A cells, 5 μM (inhibition) (Neuro2A cells; compound 5 μM): 17% | Inhibition of ROS production in neuro 2A cells, 10 μM (inhibition) (Neuro2A cells; compound 10 μM): 114% | IC50 (human NAAA): < 1000 nM
